Reference: patent publication US20260345798A1, “COMPOUNDS AND METHODS OF USE THEREOF” (Virginia Commonwealth University, priority 2023, published 2026)
Residues, ends and D or L forms follow the SMILES beside them.

Experiments:
[1] = PK study in mice, IV and IP; type: in vivo
Description: These studies were conducted at the Sanford-Burnham Pharmacology Core facility for measurements of IVMT-Rx-3 in plasma after dosing.
The chemical formula of IVMT-Rx-3 (PDZ1/2i) is provided as FIG. 1A, and synthesis schema is described above in Chemical Example 1. Docked structure of IVMT-Rx-3 in complex with MDA-9/Syntenin is provided as FIG. 1B. After confirming the synthesis product using different analytical methods, e.g., HPLC, LC/MS and NMR (FIGS. 8A-8F), the dissociation constant of IVMT-Rx-3-recombinant MDA-9/Syntenin complex was measured to be 63+/−11 μM using microscale thermophoresis (MST) analysis (FIG. 1C). In order to assess if this hybrid chimeric molecule (small molecule linked to a peptide) was suitable for cellular and in vivo assays, initial PK studies in mice were performed with IVMT-Rx-3 administered both IV (5.0 mg/kg) and IP (50.0 mg/kg), and compound concentration in serum was measured at the indicated times (FIG. 1D).

MDA-9/Syntenin: Src = target: T1, MDA-9/Syntenin: Src (Homo sapiens, UniProt O00560); test: Co-immunoprecipitation MDA-9/Syntenin: Src; type: cell-based; conditions: C8161.9 and A-375 cells; co-IP after 12 hours treatment, fibronectin-coated plates
T1 construct: co-immunoprecipitation with anti-MDA-9
Description: FIG. 4A is an immunoblot of C8161.9 and A-375 cells treated for 12 hours with either DMSO vehicle or IVMT-Rx-3 at different doses (as indicated) and re-plated onto fibronectin-coated plates. After 30 minutes, cell lysates were immunoprecipitated and immunoblotted with the indicated antibodies.
Co-immunoprecipitation studies were performed as described previously using immunoprecipitation kits with Dynabeads® Protein G (Life Technologies) (7,8). Briefly, 30 min. after plating cells on fibronectin-coated plates, protein lysates were prepared. 200 μg of total cellular protein was incubated with anti-IgG or anti-MDA-9 overnight to facilitate binding. After subsequent washing and elution from beads, Western blotting was performed with specific antibodies.

MMP-2 and MMP-9 = MMP-2 and MMP-9 protein by Western blotting; type: cell-based, human; conditions: Western blot; A-375, C8161.9, 24 hours; FIG. 4B
Description: FIG. 4B is a Western blot of C8161.9 and A-375 cells treated with indicated doses of IVMT-Rx-3 for 24 hours. Cell lysates were subjected to Western blotting analysis to determine the expression levels of various signaling proteins (as shown) associated with MDA-9/Syntenin: Src interactions. Western blotting densitometry and relative intensity of protein bands were calculated using Image J software. The values are provided.
Western blotting was performed following a standard protocol as described previously (6,8,18,29). Antibodies used in this study were purchased from Cell Signaling Technology (Boston, MA): p-Src (Y416), total Src, matrix metalloproteinase-2 (MMP-2) and matrix metaloproteinase-9 (MMP-9), focal adhesion kinase (FAK), p IKKα/β (S176/180), total IKK, p P38 (T180/Y182) and total P38. MDA-9/Syntenin antibody was obtained from Abnova Inc. (Taiwan). β-actin (Sigma-Aldrich, St. Louis, MO) was used as an endogenous loading control. Fibronectin was purchased from EMD Millipore (Billerica, MA).

B16 lung metastases = test: B16 lung metastasis model in C57BL/6 mice; type: in vivo, mouse; conditions: 30 mg/kg I.P., 3× per week, 6 injections
Description: FIG. 6A is a series of images of B16 lung metastases in C57BL/6 mice treated with DMSO vehicle, PDZ1i, or IVMT-Rx-3 (intraperitoneal injection of 30 mg/kg, 3×/week, 6 injections total). 1×10^5 B16 cells were injected intravenously in C57BL/6 mice (n=7, per group) prior to treatment.
(§1) FIG. 6B is a series of histograms showing the number of nodules/lung, T cell populations (CD8^+IFN-γ^+) and myeloid-derived suppressor cells (MDSCs) in the lungs of the treatment groups described in FIG. 6A, as measured by flow cytometry. *: Statistical significance (p<0.05);**: Statistical significance (p<0.01);***: Statistical significance (p<0.001). ****: Statistical significance (p<0.0001).
All animal experiments were performed according to guidelines established by VCU IACUC. Immune competent mice (6-week-old male C57BL/6) were used in this study for determining the anti-metastatic efficiency of IVMT-Rx-3. Mice were purchased from Jackson Laboratories and after one-week in barrier facilities, experiments were performed. To establish lung metastases, murine B16 (1×10^5 cells/0.1 ml PBS) were injected via tail vein in C57BL/6 mice (18). Test chemical (IVMT-Rx-3) was administrated at 30 mg/kg body weight three times a week I.P. for the first two weeks (six injections, C57BL/6 study). DMSO was used as control. Anti-PD-L1 antibody and control antibodies for therapeutic injections were purchased from Bio X Cell (West Lebanon, NH, USA).
1×10^5 B16 cells were injected intravenously in C57BL/6 mice and treated with IVMT-Rx-3 (intraperitoneal injection 30 mg/kg, 3× in a week, 6 injections in total). 100 μg of Anti-PD-L1 antibody was injected through the I/P (intraperitoneal) route (3 times a week, over a 2-week period). A set of 20 animals were first injected with B16 cells (1×10^5 cells/mouse) and randomly divided into four groups (n=5) for survival studies. As stated in the above-mentioned lung metastasis protocol, mice received 6 doses of control vehicle or IVMT-Rx-3 either alone or in combination with anti-PD-L1 over the first two weeks. […]

[2] = test system: T cell, MDSC and Treg populations; test: Flow cytometry of immune cells in lungs of B16-injected mice; type: in vivo, mouse; conditions: 30 mg/kg I.P., 6 injections
From the text: as §1
FIG. 15 is a histogram showing the comparative effect of DMSO and IVMT-Rx-3 on Treg populations, as measured by flow cytometry. 5×10^5 B16 cells were injected intravenously in C57BL/6 mice, and the mice were treated with DMSO control or IVMT-Rx-3 (intraperitoneal injection 30 mg/kg, 3× in a week, 6 injections in total). MDSC (Cd11^+Gr1^+) and Treg populations (CD4^+CD25^+[…]) in the lungs were measured by flow cytometry.
Single cells were isolated from lungs by digestion with collagenase D and DNAse I. Cells were stained with the corresponding antibodies and fluorescence signals were measured with a BD Fortessa flow cytometer (BD Biosciences, San Jose, CA). Data were analyzed further with FACs DIVA software (BD Biosciences, San Jose, CA) (18). The antibodies used in this study were CD3, Gr1, CD11b, IFN-γ, CD45, CD8 (Biolegend, San Diego, CA, USA). CD4 (BD Biosciences, San Jose, CA, USA), CD25, and FOXP3 (eBiosciences, CA, USA).

T1 sequence (O00560 whole entry): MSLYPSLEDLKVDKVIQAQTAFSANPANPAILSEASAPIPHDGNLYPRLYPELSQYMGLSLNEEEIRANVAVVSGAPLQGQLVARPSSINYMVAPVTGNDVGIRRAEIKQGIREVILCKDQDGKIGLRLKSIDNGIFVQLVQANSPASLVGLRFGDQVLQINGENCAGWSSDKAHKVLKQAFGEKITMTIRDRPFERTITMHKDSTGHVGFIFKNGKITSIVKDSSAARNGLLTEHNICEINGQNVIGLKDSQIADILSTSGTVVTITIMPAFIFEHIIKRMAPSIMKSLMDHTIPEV

## Cc1cc(NC(=O)c2nc3[nH]c4c(c(=O)n3n2)CCC4)c(C)cc1NC(=O)CCOCCC(=O)N[C@H](C(=O)N[C@@H](CC(N)=O)C(=O)N[C@@H](CCC(=O)O)C(=O)N[C@@H](Cc1ccc(O)cc1)C(=O)N[C@@H](Cc1ccc(O)cc1)C(=O)N[C@H](C(=O)O)C(C)C)[C@@H](C)O [IVMT-Rx-3] (HELM PEPTIDE1{[Cc1cc(NC(=O)c2nc3[nH]c4c(c(=O)n3n2)CCC4)c(C)cc1NC(=O)CCOCCC(=O)[*:2]].T.N.E.Y.Y.V}$$$$V2.0)
[1]; IV 5.0 mg/kg and IP 50.0 mg/kg
  persistence in vivo: long-lived in vivo
[1]; mouse, serum, IP 50.0 mg/kg (IV 5.0 mg/kg)
  bioavailability: 10%
MDA-9/Syntenin: Src
  disruption of MDA-9/Syntenin: Src interactions: disrupted MDA-9/Syntenin: Src interactions
MMP-2 and MMP-9
  MMP-2 and MMP-9 expression (translational level): down regulation
B16 lung metastases
  efficacy against lung metastases compared with PDZ1i: significantly higher compared with PDZ1i
B16 lung metastases; single agent
  lung metastasis (combination experiment): markedly reduced lung metastasis
B16 lung metastases; vs vehicle
  number of lung nodules: significantly reduced the number of lung nodules
[2]
  IFN-γ-producing CD8+ T cell populations: significant increase
  MDSC populations: suppression of MDSCs
[2]; 5×10^5 B16 cells
  Treg population: no significant changes
